Assay results published in PMC12514841 (Protein Science : A Publication of the Protein Society, 2025).
Where “and” joins values, the source holds several entries; their conditions need not be identical. Equal values may be shown once.

What was measured:
Assay type in all cases: biochemical
[1] = biological target: T1, BlaC I105Y-S130G (Mycobacterium tuberculosis, UniProt P9WKD3, I117Y/S142G)
[2] = biological target: T2, BlaC I105G-G132N (Mycobacterium tuberculosis, UniProt P9WKD3, G144N/I117G)
[3] = biological target: BlaC G132N (Mycobacterium tuberculosis, UniProt P9WKD3, G132N/G144N)
[4] = biological target: T2, BlaC I105G-G132N; remark: listed apart in the source
[5] = biological target: T1, BlaC I105Y-S130G; settings: pH 6.4
[6] = biological target: BlaC S130G (Mycobacterium tuberculosis, UniProt P9WKD3, S142G)
[7] = biological target: BlaC I105Y (Mycobacterium tuberculosis, UniProt P9WKD3, I117Y); settings: pH 6.4
[8] = biological target: BlaC I105G (Mycobacterium tuberculosis, UniProt P9WKD3, I117G); settings: pH 6.4

SMILES: O=C(O)[C@H]1/C(=C/CO)O[C@@H]2CC(=O)N21 [Clavulanic acid, clavulanic acid]
- incubation time after which the enzyme is fully inhibited [1]: 2 h
- state of the enzyme after 24 h of incubation [1]: stays fully inhibited
- activity ([1]; read-out: recovery of activity, of the control activity): 63%
- course of residual activity during incubation [2]: initially a slight drop in activity, followed by a swift recovery

SMILES: CC1(C)S[C@@H]2[C@H](NC(=O)C(C(=O)O)c3ccccc3)C(=O)N2[C@H]1C(=O)O (stereo partly shown) [Carbenicillin, carbenicillin]
- times decrease in catalytic efficiency (k cat/K M ^app) versus the wild-type [3]: 13 times
- K M ^app ([3]; pH 6.4): 224 ± 11 µM
- k cat ([3]; pH 6.4): 1.62 ± 0.02 s⁻¹
- k cat /K M ^app relative to the wild-type ([3]; pH 6.4): 0.080 ± 0.004
- k cat/K M ^app ([3]; pH 6.4): 0.0072 ± 0.0004 µM⁻¹ s⁻¹
- K M ^app ([4]; pH 6.4): 7.0 ± 0.9 µM
- k cat ([4]; pH 6.4): 0.96 ± 0.07 s⁻¹
- k cat /K M ^app relative to the wild-type ([4]; pH 6.4): 1.6 ± 0.2
- k cat/K M ^app ([4]; pH 6.4): 0.14 ± 0.02 µM⁻¹ s⁻¹
- K M ^app [5]: 21 ± 3 µM
- k cat [5]: 2.7 ± 0.2 s⁻¹
- k cat /K M ^app relative to the wild-type [5]: 1.4 ± 0.2
- k cat/K M ^app [5]: 0.13 ± 0.02 µM⁻¹ s⁻¹
- K M ^app ([6]; pH 6.4): 72 ± 5 µM
- k cat ([6]; pH 6.4): 1.2 ± 0.1 s⁻¹
- k cat /K M ^app relative to the wild-type ([6]; pH 6.4): 0.22 ± 0.01
- k cat/K M ^app ([6]; pH 6.4): 0.020 ± 0.001 µM⁻¹ s⁻¹
- K M ^app [7]: 1.5 ± 1 µM
- k cat [7]: 2.0 ± 0.1 s⁻¹
- k cat /K M ^app relative to the wild-type [7]: 14.9 ± 0.8
- k cat/K M ^app [7]: 1.34 ± 0.07 µM⁻¹ s⁻¹
- K M ^app [8]: 1.5 ± 0.4 µM
- k cat [8]: 0.12 ± 0.01 s⁻¹
- k cat /K M ^app relative to the wild-type [8]: 0.90 ± 0.04
- k cat/K M ^app [8]: 0.081 ± 0.004 µM⁻¹ s⁻¹

SMILES: CC1(C)S[C@@H]2[C@H](NC(=O)[C@H](N)c3ccccc3)C(=O)N2[C@H]1C(=O)O [Ampicillin, ampicillin]
- KMapp ([3]; pH 6.4): 282 ± 9 µM
- k cat ([3]; pH 6.4): 33 ± 12 and 33 ± 12 s^−1
- k cat /K M ^app relative to the wild-type ([3]; pH 6.4): 0.10 ± 0.05
- k cat/K M ^app ([3]; pH 6.4): 0.02 ± 0.01 and 0.02 ± 0.01 μM^−1 s^−1
- kcat ([3]; pH 6.4): 61 ± 1 s⁻¹
- kcat/KMapp ([3]; pH 6.4): 220000 ± 10000 M⁻¹ s⁻¹
- kcat/KMapp relative to the wild-type ([3]; pH 6.4): 1.04 ± 0.05
- factor by which the magnitude of positive epistasis diminished in MES buffer [4]: 7.4
- KMapp ([4]; pH 6.4): 183 ± 21 µM
- k cat ([4]; pH 6.4): 18 ± 1 and 18 ± 1 s^−1
- k cat /K M ^app relative to the wild-type ([4]; pH 6.4): 0.95 ± 0.05
- k cat/K M ^app ([4]; pH 6.4): 0.20 ± 0.01 and 0.20 ± 0.01 μM^−1 s^−1
- kcat ([4]; pH 6.4): 54 ± 2 s⁻¹
- kcat/KMapp ([4]; pH 6.4): 300000 ± 40000 M⁻¹ s⁻¹
- kcat/KMapp relative to the wild-type ([4]; pH 6.4): 1.42 ± 0.05
- KMapp [5]: 813 ± 132 µM
- k cat [5]: 17 ± 1 and 17 ± 1 s^−1
- k cat /K M ^app relative to the wild-type [5]: 0.270 ± 0.005
- k cat/K M ^app [5]: 0.057 ± 0.001 and 0.057 ± 0.001 μM^−1 s^−1
- kcat [5]: 23 ± 3 s⁻¹
- kcat/KMapp [5]: 29000 ± 6000 M⁻¹ s⁻¹
- kcat/KMapp relative to the wild-type [5]: 0.14 ± 0.03
- fold decrease in k cat/K M ^app compared to the wild-type [6]: approximately 30 fold
- fold higher activity in MES than in phosphate buffer [6]: roughly 5 fold
- k cat fold lower than for wild-type BlaC [6]: 8 fold
- k cat times higher than for wild-type BlaC [6]: 2.5 times
- KMapp ([6]; pH 6.4): 588 µM
- k cat ([6]; pH 6.4): 1.7 ± 1 and 1.7 ± 1 s^−1
- k cat /K M ^app relative to the wild-type ([6]; pH 6.4): 0.03 ± 0.01
- k cat/K M ^app ([6]; pH 6.4): 0.007 ± 0.001 and 0.007 ± 0.001 μM^−1 s^−1
- kcat ([6]; pH 6.4): 21 ± 1 s⁻¹
- kcat/KMapp ([6]; pH 6.4): 35000 ± 1000 M⁻¹ s⁻¹
- kcat/KMapp relative to the wild-type ([6]; pH 6.4): 0.165 ± 0.005
- KMapp [7]: 89 ± 7 µM
- k cat [7]: 48 ± 1 and 48 ± 1 s^−1
- k cat /K M ^app relative to the wild-type [7]: 4.43 ± 0.1
- k cat/K M ^app [7]: 0.98 ± 0.02 and 0.98 ± 0.02 μM^−1 s^−1
- kcat [7]: 28 ± 1 s⁻¹
- kcat/KMapp [7]: 320000 ± 30000 M⁻¹ s⁻¹
- kcat/KMapp relative to the wild-type [7]: 1.52 ± 0.14
- KMapp [8]: 31 ± 6 µM
- k cat [8]: 3.95 ± 0.04 and 3.95 ± 0.04 s^−1
- k cat /K M ^app relative to the wild-type [8]: 1.00 ± 0.05
- k cat/K M ^app [8]: 0.21 ± 0.01 and 0.21 ± 0.01 μM^−1 s^−1
- kcat [8]: 6.0 ± 0.4 s⁻¹
- kcat/KMapp [8]: 210000 ± 40000 M⁻¹ s⁻¹
- kcat/KMapp relative to the wild-type [8]: 1.00 ± 0.19

SMILES: O=C(Cc1cccs1)N[C@@H]1C(=O)N2C(C(=O)O)=C(/C=C/c3ccc([N+](=O)[O-])cc3[N+](=O)[O-])CS[C@H]12 [Nitrocefin, nitrocefin]
- K M ^app ([3]; pH 6.4): 210 ± 30 µM
- k cat ([3]; pH 6.4): 18 ± 2 s⁻¹
- k cat /K M ^app relative to the wild-type ([3]; pH 6.4): 0.16 ± 0.04
- k cat/K M ^app ([3]; pH 6.4): 0.08 ± 0.02 µM⁻¹ s⁻¹
- K M ^app ([4]; pH 6.4): 115 ± 1 µM
- k cat ([4]; pH 6.4): 41 ± 1 s⁻¹
- k cat /K M ^app relative to the wild-type ([4]; pH 6.4): 0.71 ± 0.01
- k cat/K M ^app ([4]; pH 6.4): 0.357 ± 0.005 µM⁻¹ s⁻¹
- k cat [5]: 21 ± 7 and 21 ± 7 s^−1
- k cat /K M ^app relative to the wild-type [5]: 0.08 ± 0.04
- kcat [5]: 13 ± 4 s⁻¹ and 13 ± 1 s⁻¹
- fold decrease in k cat/K M ^app compared to the wild-type [6]: approximately 30 fold
- K M ^app ([6]; pH 6.4): 358 ± 4 µM
- k cat ([6]; pH 6.4): 5 ± 1 s⁻¹
- k cat /K M ^app relative to the wild-type ([6]; pH 6.4): 0.03 ± 0.01
- k cat/K M ^app ([6]; pH 6.4): 0.014 ± 0.003 µM⁻¹ s⁻¹
- K M ^app [7]: 18 ± 1 µM
- k cat [7]: 39 ± 10 s⁻¹
- k cat /K M ^app relative to the wild-type [7]: 4.2 ± 0.2
- k cat/K M ^app [7]: 2.1 ± 0.1 µM⁻¹ s⁻¹
- K M ^app [8]: 240 ± 40 µM
- k cat [8]: 79 ± 5 s⁻¹
- k cat /K M ^app relative to the wild-type [8]: 0.68 ± 0.04
- k cat/K M ^app [8]: 0.34 ± 0.02 µM⁻¹ s⁻¹
